Converted amounts (≈) assume the structure as drawn.
What was measured:
[1] = biological target: T1, SARS-CoV-2 spike protein S1 subunit (Severe acute respiratory syndrome coronavirus 2, UniProt P0DTC2); type: binding
T1 construct: Recombinant SARS-CoV-2 spike protein S1 subunit (˜72 kDa) containing an N-terminal His-tag; purchased RayBiotech (Peachtree Corners, GA)

[2] = biological target: T2, transporter ABCG2 (also called BCRP) (Homo sapiens, UniProt Q9UNQ0); details: cited from earlier work
T2 sequence (Q9UNQ0 1-655): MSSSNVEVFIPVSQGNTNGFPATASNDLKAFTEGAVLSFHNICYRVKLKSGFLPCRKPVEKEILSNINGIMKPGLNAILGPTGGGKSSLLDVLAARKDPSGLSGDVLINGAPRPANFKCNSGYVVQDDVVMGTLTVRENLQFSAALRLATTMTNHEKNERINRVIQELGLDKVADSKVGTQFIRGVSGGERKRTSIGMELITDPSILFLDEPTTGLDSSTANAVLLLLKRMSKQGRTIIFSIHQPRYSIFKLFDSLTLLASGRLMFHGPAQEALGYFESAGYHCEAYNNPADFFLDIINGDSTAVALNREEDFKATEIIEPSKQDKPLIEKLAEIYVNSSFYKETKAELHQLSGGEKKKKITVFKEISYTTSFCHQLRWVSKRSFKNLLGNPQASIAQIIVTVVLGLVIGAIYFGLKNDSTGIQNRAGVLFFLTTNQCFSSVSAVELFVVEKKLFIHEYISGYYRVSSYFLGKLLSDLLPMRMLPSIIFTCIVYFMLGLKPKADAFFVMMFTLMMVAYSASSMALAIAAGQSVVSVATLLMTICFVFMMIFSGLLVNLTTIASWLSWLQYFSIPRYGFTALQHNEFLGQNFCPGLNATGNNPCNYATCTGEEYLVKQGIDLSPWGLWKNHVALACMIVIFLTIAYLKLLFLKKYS

[3] = biological target: T1, SARS-CoV-2 spike protein S1 subunit; assay: Equilibrium dissociation constants by rapid equilibrium dialysis; type: binding; details: 37° C., PBS pH 7.2
Experimental: Equilibrium dissociation constants. The affinity constants for the binding of active compounds to the spike protein S1 subunit were determined by rapid equilibrium dialysis. First, the optimum time for full equilibration of the RED device obtained from ThermoFisher (Waltham, MA) was determined with each of the compounds by adding 1 μM spike protein in buffer (300 μL) to the protein chamber and adding blank phosphate buffered saline, pH 7.2 (500 μL) to the buffer chamber. CBGA or CBDA was spiked into the protein chamber at a final concentration of 2.5 μM. […] After centrifugation at 18,000 g for 30 min, the supernatant was removed and ligand concentration was measured using UHPLC-MS/MS. Next, the equilibrium dissociation constants of CBGA and CBDA were determined by incubating the spike protein S1 subunit with different concentrations of the ligands ranging from 0.05-500 μM in triplicate. After 5 h for CBGA or 4 h for CBDA, the concentrations of each ligand in the sample and buffer chambers were measured using UHPLC-MS/MS as described above. Data analysis and fitting was carried out using Microsoft Excel (Seattle, WA) and KaleidaGraph v4.1 (Reading, PA).

[4] = beagle dogs, oral, 1 mg/kg; cited from earlier work
SARS-CoV-2 (WA1/2020) [5] = assay: microbe, parasite or virus in culture; type: cell-based; details: Severe acute respiratory syndrome coronavirus 2, Vero C1008
SARS-CoV-2 (WA1/2020) [6] = type: cell-based
[7] = human volunteers, oral, 0.063 mg/kg; cited from earlier work
SARS-CoV-2 S1 protein = biological target: T3, SARS-CoV-2 S1 protein (Severe acute respiratory syndrome coronavirus 2, UniProt P0DTC2); assay: MagMASS competition assay with SBP-1 (binding site determination)
T3 construct: Recombinant SARS-CoV-2 spike protein S1 subunit (˜72 kDa) containing an N-terminal His-tag; purchased RayBiotech (S1); LifeTein (SBP-1 peptide)

Row | Compound | Fold Peak Area Enrichment, Standards mixture [1] | Fold peak area enrichment [1] | binding in competitive binding MagMASS assays [1] | other results
1 | CCCCCc1cc(O)c2c(c1)OC(C)(CCC=C(C)C)C=C2 (stereo not drawn) [CBC, Cannabichromene] | 2.9 ± 0.75 | 2.9 ± 0.75 | weak or no binding | 
2 | C=C(C)[C@@H]1CCC(C)=C[C@H]1c1c(O)cc(CCCCC)cc1O [CBD, Cannabidiol] | 2.9 ± 0.72 | 2.9 ± 0.72 | weak or no binding | inhibition of the transporter ABCG2 [2]: inhibitors
3 | C=C(C)[C@@H]1CCC(C)=C[C@H]1c1c(O)cc(CCCCC)cc1OC [CBD-OMe] |  |  |  | Fold Peak Area Enrichment, Pure compound [1]: 1.5 ± 0.12
4 | C=C(C)[C@@H]1CCC(C)=C[C@H]1c1c(O)cc(CCCCC)c(C(=O)O)c1O [CBDA, Cannabidiolic acid] | 12.2 ± 0.52 | 12.2 ± 0.52 |  | substrate of the efflux transporter ABCG2 [2]: substrate; Kd [3]: 5.6 ± 2.2 µM; bioavailability relative to CBD [4]: 2 fold; serum levels [4]: up to 1.42 μM; tolerability [4]: well tolerated; IC50 (SARS-CoV-2 (WA1/2020) [5]): 24 µg/mL (≈ 66.9 µM); Fold Peak Area Enrichment, Extract #5 [1]: 15.0 ± 0.5; Fold Peak Area Enrichment, Pure compound [1]: 15.5 ± 1.1; SARS-CoV-2 viral RNA in cells (anti-dsRNA staining) (SARS-CoV-2 (WA1/2020) [6]): absence of SARS-CoV-2 viral RNA; maximum plasma concentrations [7]: 0.21 µM
5 | C=C(C)[C@@H]1CCC(C)=C[C@H]1c1c(O)cc(CCC)cc1O [CBDV, Cannabidivarin] | 1.6 ± 0.17 | 1.6 ± 0.17 |  | 
6 | CCCCCc1cc(O)c(C/C=C(\C)CCC=C(C)C)c(O)c1 [CBG, Cannabigerol] | 3.4 ± 0.82 | 3.4 ± 0.82 | weak or no binding | inhibition of the transporter ABCG2 [2]: inhibitors
7 | CCCCCc1cc(O)c(C/C=C(\C)CCC=C(C)C)c(OC)c1 [CBG-OMe] |  |  |  | Fold Peak Area Enrichment, Pure compound [1]: 1.8 ± 0.07
8 | CCCCCc1cc(O)c(C/C=C(\C)CCC=C(C)C)c(O)c1C(=O)O [CBGA, Cannabigerolic acid] | 20.5 ± 0.51 | 20.5 ± 0.51 |  | Kd [3]: 19.8 ± 2.7 µM; IC50 (SARS-CoV-2 (WA1/2020) [5]): 37 µg/mL (≈ 103 µM); Fold Peak Area Enrichment, Pure compound [1]: 10.9 ± 1.3; SARS-CoV-2 viral RNA in cells (anti-dsRNA staining) (SARS-CoV-2 (WA1/2020) [6]): absence of SARS-CoV-2 viral RNA
9 | CCCCCc1cc(O)c2c(c1)OC(C)(C)c1ccc(C)cc1-2 [CBN, Cannabinol] | 3.4 ± 0.78 | 3.4 ± 0.78 | weak or no binding | 
10 | CCCCCc1cc2c(c(O)c1C(=O)O)-c1cc(C)ccc1C(C)(C)O2 [CBNA, Cannabinolic acid] |  | 5.6 ± 1.4 |  | 
11 | Cc1ccc(NC(=O)c2ccc(CN3CCN(C)CC3)cc2)cc1Nc1nccc(-c2cccnc2)n1 [Imatinib, imatinib] |  |  |  | binding to the immobilized S1 protein in the MagMASS assay [1]: no binding
12 | CCCCCc1cc2c(c(O)c1C(=O)O)[C@@H]1C=C(C)CC[C@H]1C(C)(C)O2 [THCA-A, Tetrahydrocannabinolic acid] | 16.7 ± 2.2 | 16.7 ± 2.2 |  | Fold Peak Area Enrichment, Pure compound [1]: 19.7 ± 2.0
13 | C=CC(C)(C)c1cc(/C=C/C(=O)c2ccc(O)cc2)c(OC)cc1O [licochalcone A] |  |  |  | binding in the presence of SBP-1 (SARS-CoV-2 S1 protein; 2.8 μM SBP-1): reduced; MagMASS peak area enrichment lowered when SBP-1 was added (SARS-CoV-2 S1 protein; SBP-1 added to incubation with active S1 protein): 3 fold
14 | COc1c(C)c2c(c(O)c1C/C=C(\C)CCC(=O)O)C(=O)OC2 [mycophenolic acid] |  |  |  | binding to the immobilized S1 protein in the MagMASS assay [1]: no binding
15 | CCN(CC)CCCC(C)Nc1c2ccc(Cl)cc2nc2ccc(OC)cc12 (stereo not drawn) [quinacrine] |  |  |  | binding to the immobilized S1 protein in the MagMASS assay [1]: no binding
16 | CCCCCc1cc(O)c2c(c1)OC(C)(C)[C@@H]1CC=C(C)C[C@@H]21 [Δ^8-THC, Δ^8-Tetrahydrocannabinol] | 3.1 ± 0.81 | 3.1 ± 0.81 | weak or no binding | 
17 | CCCCCc1cc(O)c2c(c1)OC(C)(C)[C@@H]1CCC(C)=C[C@@H]21 [Δ^9-THC, Δ^9-Tetrahydrocannabinol] | 3.0 ± 0.77 | 3.0 ± 0.77 | weak or no binding | 

From patent US20240316074A1 (priority 2021, published 2024)
